Source: patent US10730866B2, “Indole derivatives and use thereof” (Purdue Pharma L.P., priority 2014, dated 2020)

The molecules below were run against human Nav1.7 (Homo sapiens (Human), UniProt Q15858) (assay: FLIPR or FLIPR TETRA sodium dye assay for sodium channel blocking activity). Settings: recombinant HEK293 cells expressing human Nav1.7.
Assay type: cell-based
Procedure: In vitro assays were performed in a recombinant cell line expressing cDNA encoding the alpha subunit (Nav1.7, SCN9a, PN1, NE) of human Nav1.7 (Accession No. NM_002977). The cell line was provided by investigators at Yale University (Cummins et al, J. Neurosci. 18(23): 9607-9619 (1998)). For dominant selection of the Nav1.7-expressing clones, the expression plasmid co-expressed the neomycin resistance gene. The cell line was constructed in the human embryonic kidney cell line, HEK293, under the influence of the CMV […] promoter, and stable clones were selected using limiting dilution cloning and antibiotic selection using the neomycin analogue, G418. Recombinant beta and gamma subunits were not introduced into this cell line. Additional cell lines expressing recombinant Nav1.7 cloned from other species can also be used, alone or in combination with various beta subunits, gamma subunits or chaperones.
Unless otherwise noted, cell culture reagents were purchased from Mediatech of Herndon, Va. The recombinant Nav1.7/HEK293 cells were routinely cultured in growth medium consisting of Dulbecco's […] essential medium containing 10% fetal bovine serum (FBS, Hyclone, Thermo Fisher Scientific, Logan, Utah), 100 U/mL penicillin, 100 μg/mL streptomycin, 2-4 mM L-glutamine, and […] G418. For natural, non-recombinant cell lines, the selective antibiotic was omitted, and additional media formulations can be applied as needed.
The final buffer consisted of 20 mM Hepes, pH 7.3, 1.261 mM CaCl2, 0.493 mM MgCl2, 0.407 mM Mg(SO)4, 5.33 mM KCl, 0.441 mM KH2PO4, 137 mM NaCl, 0.336 mM Na2HPO4 and […] D-glucose (Hanks et al., Proc. Soc. Exp. Biol. Med. 71:196 (1949)), and the simple formulation was typically the basic buffer throughout the assay (i.e., all wash and addition steps).
The fluorescence indicator used in the primary fluorescence assay was the cell permeant version of CoroNa™ Green (Invitrogen, Molecular Probes, Eugene, Oreg.), a dye that emits light in the fluorescence range (Harootunian et al., J. Biol. Chem. 264(32):19458-19467 (1989)). The intensity of this emission, but not the wavelength range, is increased when the dye is exposed to Na^+ ions, which it can bind with partial selectivity. Cells expressing Nav1.7 or other sodium channels were loaded with the CoroNa™ Green dye immediately in advance of the fluorescence assay, and then, after agonist stimulation, the mobilization of Na^+ ions was detected as the Na^+ ions flowed from the extracellular fluid into the cytoplasm through the activated sodium channel pores. The dye was stored in the dark as a lyophilized powder, and then an aliquot was dissolved immediately before the cell loading procedure, according to the instructions of the manufacturer, to a stock concentration of 10 mM in DMSO. It was then diluted in the assay buffer to a 4× concentrated working solution, so that the final concentration of dye in the cell loading buffer was 5 μM.
In the fluorescence assays, two agonists were used in combination, namely 1) veratridine; and 2) the venom from the yellow scorpion, Leiurus quinquestriatus hebraeus. Veratridine is an alkaloid small molecule that facilitates the capture of channel openings by inhibiting inactivation, and the scorpion venom is a natural preparation that includes peptide toxins selective for different subsets of voltage-gated sodium channels. These scorpion toxins inhibit the fast inactivation of their cognate target channels. Stock solutions of the agonists were prepared to 40 mM in DMSO (veratridine) and 1 mg/mL in dH2O (scorpion venom), and then diluted to make a 4× or 2× stock (depending on the particular assay) in assay buffer, the final concentration being 100 μM (veratridine) and 10 μg/mL (scorpion venom). Both of the agonists were purchased from Sigma Aldrich, St. Louis, Mo.
Test compounds were dissolved in DMSO to yield 10 mM stock solutions. […]

Sequence of human Nav1.7 (Q15858 other isoform, or with tags, fused parts or gaps): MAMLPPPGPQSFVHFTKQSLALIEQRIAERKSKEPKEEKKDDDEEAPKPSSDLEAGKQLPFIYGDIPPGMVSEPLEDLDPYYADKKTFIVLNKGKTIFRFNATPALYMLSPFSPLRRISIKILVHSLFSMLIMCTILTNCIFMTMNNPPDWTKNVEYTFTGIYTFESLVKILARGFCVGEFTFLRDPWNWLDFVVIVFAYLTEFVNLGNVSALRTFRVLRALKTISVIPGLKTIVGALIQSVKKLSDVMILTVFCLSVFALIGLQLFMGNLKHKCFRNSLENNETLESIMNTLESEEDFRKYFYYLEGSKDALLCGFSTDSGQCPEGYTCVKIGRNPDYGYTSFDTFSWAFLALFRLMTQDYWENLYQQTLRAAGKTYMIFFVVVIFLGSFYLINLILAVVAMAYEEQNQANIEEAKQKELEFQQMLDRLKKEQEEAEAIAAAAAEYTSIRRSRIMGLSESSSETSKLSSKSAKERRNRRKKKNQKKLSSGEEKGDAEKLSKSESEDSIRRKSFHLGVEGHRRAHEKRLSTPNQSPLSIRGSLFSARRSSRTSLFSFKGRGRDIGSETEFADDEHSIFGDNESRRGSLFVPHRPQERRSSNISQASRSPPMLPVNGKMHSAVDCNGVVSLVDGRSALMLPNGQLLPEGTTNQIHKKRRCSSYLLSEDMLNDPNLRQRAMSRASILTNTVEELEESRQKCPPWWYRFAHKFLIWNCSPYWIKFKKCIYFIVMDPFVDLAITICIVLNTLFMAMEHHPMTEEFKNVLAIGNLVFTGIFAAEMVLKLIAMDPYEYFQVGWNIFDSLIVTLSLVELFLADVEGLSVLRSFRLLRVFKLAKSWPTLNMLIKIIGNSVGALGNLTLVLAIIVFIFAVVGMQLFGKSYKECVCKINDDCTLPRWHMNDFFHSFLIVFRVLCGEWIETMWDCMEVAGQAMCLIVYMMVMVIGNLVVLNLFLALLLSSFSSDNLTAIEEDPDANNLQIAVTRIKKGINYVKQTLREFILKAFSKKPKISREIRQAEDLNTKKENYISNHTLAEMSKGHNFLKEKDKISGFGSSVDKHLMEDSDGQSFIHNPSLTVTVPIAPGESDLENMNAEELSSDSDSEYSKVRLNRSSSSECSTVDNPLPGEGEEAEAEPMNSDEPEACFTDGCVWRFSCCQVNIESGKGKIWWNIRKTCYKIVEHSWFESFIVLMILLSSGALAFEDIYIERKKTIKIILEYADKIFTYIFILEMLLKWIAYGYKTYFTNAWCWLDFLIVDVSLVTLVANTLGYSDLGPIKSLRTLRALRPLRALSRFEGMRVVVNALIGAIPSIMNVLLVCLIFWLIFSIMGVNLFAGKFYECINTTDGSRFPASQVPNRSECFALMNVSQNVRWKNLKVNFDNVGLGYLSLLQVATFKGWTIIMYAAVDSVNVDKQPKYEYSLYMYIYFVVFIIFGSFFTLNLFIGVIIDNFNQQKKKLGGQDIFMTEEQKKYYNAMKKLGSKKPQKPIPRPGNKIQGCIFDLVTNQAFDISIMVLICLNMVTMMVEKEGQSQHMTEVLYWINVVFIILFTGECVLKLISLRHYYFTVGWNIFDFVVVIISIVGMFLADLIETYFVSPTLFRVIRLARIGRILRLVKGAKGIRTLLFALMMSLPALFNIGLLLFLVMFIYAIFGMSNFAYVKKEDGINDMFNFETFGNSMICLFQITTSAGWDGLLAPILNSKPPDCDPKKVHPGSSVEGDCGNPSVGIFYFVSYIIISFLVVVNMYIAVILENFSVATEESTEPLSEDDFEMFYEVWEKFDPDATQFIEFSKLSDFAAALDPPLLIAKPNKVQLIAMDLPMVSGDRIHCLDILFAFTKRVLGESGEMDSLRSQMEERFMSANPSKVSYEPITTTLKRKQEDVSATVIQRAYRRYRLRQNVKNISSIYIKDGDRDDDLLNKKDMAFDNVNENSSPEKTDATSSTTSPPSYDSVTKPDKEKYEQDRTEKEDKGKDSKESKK

How did the IC50 turn out when NC(=O)c1cccc(-c2ccc3[nH]ccc3c2)n1 [Compound 29, 6-(1H-indol-5-yl)picolinamide] was run?
Its IC50 is over 20 µM.

With O=C(Nc1ccc(C(F)(F)F)cc1)c1cccc(-c2ccc3[nH]ccc3c2)n1 [Compound 32, 6-(1H-indol-5-yl)-N-(4-(trifluoromethyl)phenyl)picolinamide] as the molecule, how does the IC50 read?
The IC50 was 0.233 ± 0.035 µM.

With O=C(c1cccc(-c2ccc3[nH]ccc3c2)n1)N(c1ccc(C(F)(F)F)cc1)c1ccc(C(F)(F)F)cc1 [Compound 33, 6-(1H-indol-5-yl)-N,N-bis(4-(trifluoromethyl)phenyl)picolinamide] as the molecule, how does the IC50 read?
The IC50 was over 20 µM.

C[C@H](Nc1cc(C(N)=O)nc(-c2ccc3[nH]ccc3c2)n1)C(N)=O [Compound 35, (S)-6-((1-amino-1-oxopropan-2-yl)amino)-2-(1H-indol-5-yl)pyrimidine-4-carboxamide] was tested. Which IC50 did it give?
Its IC50 is over 20 µM.

For NC(=O)c1cc(N[C@H]2CCNC2=O)nc(-c2ccc3[nH]ccc3c2)n1 [Compound 36, (S)-2-(1H-indol-5-yl)-6-((2-oxopyrrolidin-3-yl)amino)pyrimidine-4-carboxamide], which IC50 is on record?
Its IC50 is over 20 µM.

For NC(=O)c1cc(O[C@H]2CCNC2=O)nc(-c2ccc3[nH]ccc3c2)n1 [Compound 37, (S)-2-(1H-indol-5-yl)-6-((2-oxopyrrolidin-3-yl)oxy)pyrimidine-4-carboxamide], which IC50 is on record?
Its IC50 is over 20 µM.

For COc1ccc(-c2nc3cc(-c4nc(N[C@H]5CCNC5=O)cc(C(N)=O)n4)ccc3n2-c2ccc(F)cc2)c(OC)c1 [Compound 42, (S)-2-(2-(2,4-dimethoxyphenyl)-1-(4-fluorophenyl)-1H-benzo[d]imidazol-5-yl)-6-((2-oxopyrrolidin-3-yl)amino)pyrimidine-4-carboxamide], which IC50 is on record?
Its IC50 is 2.02 ± 0.146 µM.

NC(=O)c1cc(N[C@H]2CCNC2=O)nc(-c2ccc3c(c2)ncn3-c2ccc(C(F)(F)F)cc2)n1 [Compound 45, (S)-6-((2-oxopyrrolidin-3-yl)amino)-2-(1-(4-(trifluoromethyl)phenyl)-1H-benzo[d]imidazol-5-yl)pyrimidine-4-carboxamide] was tested. Which IC50 did it give?
The IC50 was 7.21 ± 0.562 µM.

With CC(C)Cn1ccc2cc(-c3nc(N[C@@H](C)C(N)=O)cc(C(N)=O)n3)ccc21 [Compound 47, (S)-6-((1-amino-1-oxopropan-2-yl)amino)-2-(1-isobutyl-1H-indol-5-yl)pyrimidine-4-carboxamide] as the molecule, how does the IC50 read?
Its IC50 is 4.19 ± 0.862 µM.

Which IC50 does the source give for OC[C@H](O)c1ccnc(-c2ccc3ncn(-c4ccc(C(F)(F)F)cc4)c3c2)n1 [Compound 50, (R)-1-(2-(1-(4-(trifluoromethyl)phenyl)-1H-benzo[d]imidazol-6-yl)pyrimidin-4-yl)ethane-1,2-diol] here?
Its IC50 is over 20 µM.

For OC[C@@H](O)c1ccnc(-c2ccc3ncn(-c4ccc(C(F)(F)F)cc4)c3c2)n1 [Compound 51, (S)-1-(2-(1-(4-(trifluoromethyl)phenyl)-1H-benzo[d]imidazol-6-yl)pyrimidin-4-yl)ethane-1,2-diol], which IC50 is on record?
Its IC50 is 3.51 ± 0.733 µM.

NC(=O)c1cccc(-c2ccc3c(ccn3Cc3ccc(C(F)(F)F)cc3)c2)n1 [Compound 56, 6-(1-(4-(trifluoromethyl)benzyl)-1H-indol-5-yl)picolinamide] was tested. Which IC50 did it give?
Its IC50 is 0.23 ± 0.026 µM.

For NC(=O)c1cccc(-c2ccc3c(ccn3S(=O)(=O)c3ccc(C(F)(F)F)cc3)c2)n1 [Compound 57, 6-(1-((4-(trifluoromethyl)phenyl)sulfonyl)-1H-indol-5-yl)picolinamide], which IC50 is on record?
The IC50 was 0.658 ± 0.078 µM.

With NC(=O)c1cccc(-c2ccc3c(ccn3CC3CCCCC3)c2)n1 [Compound 58, 6-(1-(cyclohexylmethyl)-1H-indol-5-yl)picolinamide] as the molecule, how does the IC50 read?
The IC50 was 0.237 ± 0.062 µM.

How did the IC50 turn out when NC(=O)c1cccc(-c2ccc3c(ccn3S(=O)(=O)C3CCCCC3)c2)n1 [Compound 59, 6-(1-(cyclohexylsulfonyl)-1H-indol-5-yl)picolinamide] was run?
Its IC50 is 0.927 ± 0.05 µM.

For NC(=O)c1cccc(-c2ccc3c(ccn3Cc3ccc(F)cc3)c2)n1 [Compound 61, 6-(1-(4-fluorobenzyl)-1H-indol-5-yl)picolinamide], which IC50 is on record?
The IC50 was 0.801 ± 0.052 µM.

How did the IC50 turn out when Cc1ccc(Cn2ccc3cc(-c4cccc(C(N)=O)n4)ccc32)cc1 [Compound 62, 6-(1-(4-methylbenzyl)-1H-indol-5-yl)picolinamide] was run?
The IC50 was over 20 µM.

How did the IC50 turn out when NC(=O)c1cccc(-c2ccc3c(ccn3CCC3CCCCC3)c2)n1 [Compound 63, 6-(1-(2-cyclohexylethyl)-1H-indol-5-yl)picolinamide] was run?
Its IC50 is 1.12 ± 0.182 µM.

With NC(=O)c1cccc(-c2ccc3c(ccn3Cc3ccncc3)c2)n1 [Compound 64, 6-(1-(pyridin-4-ylmethyl)-1H-indol-5-yl)picolinamide] as the molecule, how does the IC50 read?
Its IC50 is over 20 µM.

With NC(=O)c1cccc(-c2ccc3c(ccn3CCN3CCOCC3)c2)n1 [Compound 65, 6-(1-(2-morpholinoethyl)-1H-indol-5-yl)picolinamide] as the molecule, how does the IC50 read?
The IC50 was over 20 µM.

Which IC50 does the source give for Cc1noc(C)c1Cn1ccc2cc(-c3cccc(C(N)=O)n3)ccc21 [Compound 66, 6-(1-((3,5-dimethylisoxazol-4-yl)methyl)-1H-indol-5-yl)picolinamide] here?
The IC50 was 5.55 ± 0.376 µM.

CC(C)Cn1ccc2cc(-c3cccc(C(N)=O)n3)ccc21 [Compound 67, 6-(1-isobutyl-1H-indol-5-yl)picolinamide] was tested. Which IC50 did it give?
Its IC50 is 0.308 ± 0.078 µM.

For Cc1nc(Cn2ccc3cc(-c4cccc(C(N)=O)n4)ccc32)cs1 [Compound 68, 6-(1-((2-methylthiazol-4-yl)methyl)-1H-indol-5-yl)picolinamide], which IC50 is on record?
Its IC50 is 10 to 20 µM.

Cn1ccc2cc(-c3cccc(C(=O)Nc4ccc(C(F)(F)F)cc4)n3)ccc21 [Compound 75, 6-(1-methyl-1H-indol-5-yl)-N-(4-(trifluoromethyl)phenyl)picolinamide] was tested. Which IC50 did it give?
Its IC50 is 3.03 ± 0.837 µM.

Which IC50 does the source give for O=C(NC1CCCCC1)c1cccc(-c2ccc3[nH]ccc3c2)n1 [Compound 76, N-cyclohexyl-6-(1H-indol-5-yl)picolinamide] here?
Its IC50 is 0.167 ± 0.02 µM.

For O=C(Nc1ccc(C(F)(F)F)cc1)c1cccc(-c2ccc3[nH]ncc3c2)n1 [Compound 77, 6-(1H-indazol-5-yl)-N-(4-(trifluoromethyl)phenyl)picolinamide], which IC50 is on record?
The IC50 was 2.7 ± 0.524 µM.

How did the IC50 turn out when C[C@H](Nc1cc(C(=O)Nc2ccc(C(F)(F)F)cc2)nc(-c2ccc3occc3c2)n1)C(N)=O [Compound 79, (S)-6-((1-amino-1-oxopropan-2-yl)amino)-2-(benzofuran-5-yl)-N-(4-(trifluoromethyl)phenyl)pyrimidine-4-carboxamide] was run?
Its IC50 is over 20 µM.

Which IC50 does the source give for C[C@H](Nc1cc(C(=O)Nc2ccc(C(F)(F)F)cc2)nc(-c2ccc3[nH]ccc3c2)n1)C(N)=O [Compound 80, (S)-6-((1-amino-1-oxopropan-2-yl)amino)-2-(1H-indol-5-yl)-N-(4-(trifluoromethyl)phenyl)pyrimidine-4-carboxamide] here?
The IC50 was over 20 µM.

How did the IC50 turn out when O=C(Nc1ccc(C(F)(F)F)cc1)c1cccc(-c2ccc3occc3c2)n1 [Compound 81, 6-(benzofuran-5-yl)-N-(4-(trifluoromethyl)phenyl)picolinamide] was run?
Its IC50 is 0.782 ± 0.044 µM.

For O=C(NCC1CCCCC1)c1cccc(-c2ccc3[nH]ccc3c2)n1 [Compound 83, N-(cyclohexylmethyl)-6-(1H-indol-5-yl)picolinamide], which IC50 is on record?
Its IC50 is 0.18 ± 0.031 µM.

For O=C(c1cccc(-c2ccc3[nH]ccc3c2)n1)N1CCCC1 [Compound 84, (6-(1H-indol-5-yl)pyridin-2-yl)(pyrrolidin-1-yl)methanone], which IC50 is on record?
The IC50 was over 20 µM.

Which IC50 does the source give for O=C(NC1CCCC1)c1cccc(-c2ccc3[nH]ccc3c2)n1 [Compound 85, N-cyclopentyl-6-(1H-indol-5-yl)picolinamide] here?
Its IC50 is 1.21 ± 0.242 µM.

With CC1CN(C(=O)c2cccc(-c3ccc4[nH]ccc4c3)n2)CC(C)O1 (stereo not shown) [Compound 86, (6-(1H-indol-5-yl)pyridin-2-yl)(2,6-dimethylmorpholino)methanone] as the molecule, how does the IC50 read?
The IC50 was over 20 µM.

For O=C(Nc1nnn[nH]1)c1cccc(-c2ccc3[nH]ccc3c2)n1 [Compound 87, 6-(1H-indol-5-yl)-N-(1H-tetrazol-5-yl)picolinamide], which IC50 is on record?
Its IC50 is over 20 µM.
